The source of these data is PubChem BioAssay AID2060352 (Molecular Pharmacology Branch, DTP, NCI, 2025).

In this experiment the test system is 616215-338-R-J1-PDC spheroid with HUVEC/MSC, viability. In words: Anticancer human tumor 616215-338-R-J1-PDC patient-derived colon adenocarcinoma cell line growth inhibition [TAK]. Conditions: for viability, T/C: stronger effect = lower value. The source says: Combinatorial screen of targeted agents with TAK-243 and ipatasertib in multi-cell type tumor spheroids
A high-throughput screen of multi-cell type tumor spheroids was designed to identify active combinations of targeted small molecules and TAK-243 or ipatasertib. Complex spheroids include a stromal component modeled by human endothelial cells (HUVEC) and fibroblasts modeled by human mesenchymal stem cells (MSCs). The concentration ranges selected for each drug and investigational agent were based upon clinically achievable concentrations if the clinical Cmax of the agent was known.
Compounds. The drugs and investigational agents: TAK-243 (785004), ipatasertib (767898), everolimus (733504), selumetinib (741078), bortezomib (756655), trametinib (758246), ixazomib (758254), vemurafenib (761431), dabrafenib (764134), sapanisertib (764658), alpelisib (765974), and copanlisib (816437), were obtained from the National Cancer Institute (NCI) Developmental Therapeutics Program Chemical Repository. The FDA-approved anticancer drug set is available from the NCI Developmental Therapeutics Program. […] The stock solutions were prepared in dimethyl sulfoxide (DMSO, Sigma-Aldrich, St. Louis, MO, cat. D2650) at 800-fold the tested concentration and stored at -70 degrees C prior to their use. All drugs and investigational agents were tested over a range starting from a high concentration at or near the clinical Cmax and decreasing in half-log increments. If the clinical Cmax for an agent had not been determined, the highest concentration tested was 10 microM.
NCI60 Cell Culture. NCI60 cell lines were obtained from the NCI Developmental Therapeutics Program Tumor Repository. For each lot of cells, the Repository performed Applied Biosystems AmpFLSTR Identifiler testing with PCR amplification to confirm consistency with the published Identifier STR profile for each cell line. Cells were kept in continuous culture for no more than 20 passages. The optimal seeding densities for each of the cell lines at each time point assessed were determined prior to performing the concentration response studies. Briefly, the NCI60 human tumor lines were grown as monolayers in RPMI 1640 medium supplemented with 10% FBS and 2 mmol/L L-glutamine.
An additional 2 lines were from the NCI60 cell line panel including melanomas, MALME-3M and SK-MEL-2. Pooled donor human umbilical vein endothelial cells (HUVEC, Lonza, cat. CC-2519) and human mesenchymal stem cells (hMSC, Lonza, cat. PT-2501) were purchased from Lonza (Walkersville, MD).
PDMR cell lines were grown in complete medium (DC medium): Dulbecco's modified Eagle's medium (DMEM)/F12 supplemented with 5% fetal bovine serum (FBS), 2 mM L-glutamine, 100 U/mL penicillin and 100 µg/ml streptomycin, 0.4 µg/ml hydrocortisone, 10 ng/ml epidermal growth factor (EGF) recombinant human protein, 24 µg/mL adenine, and 0.1 mg/mL primocin. During culture from frozen stock vials, PDMR cells were cultured in the same medium containing 10 µM Y-27632 (see Table 3). The PDCs were cultured in complete DMEM/F12 media without 10 microM Y-27632 dihydrochloride for at least two passages prior to the screen. The pooled donor HUVEC and hMSC were cultured in endothelial cell growth medium 2 (PromoCell, Heidelberg, Germany, cat. C-22011) and mesenchymal stem cell growth medium 2 (PromoCell, cat. C-28009), respectively. For all experiments, HUVEC and hMSC were used at passages </=5.
For the pre-screen, cell seeding densities were determined from a titration spanning the range from 5,000 to 313 cells per well. The mct-spheroids including 60% malignant cells, 25% HUVEC and 15% MSC dispensed as a mixture into U-bottom Ultra-Low Attachment 384-well plates (Corning, NY)
High-throughput Drug Combination Screening.
Prior to their inoculation into 384-well plates, malignant cells, HUVEC, and hMSC were removed from T flasks using TrypLE express (Thermo Fisher Scientific, cat. 12605036) and harvested by centrifugation for 5 min at 233 x g. […]

Several values for one entry are separate records, joined by “and”; a condition that tells them apart may be missing. Identical values can stand only once.
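Further: spheroids exposed to drugs for 7 days before readout.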

For the compound `COC1CC2CCC(C)C(O)(O2)C(=O)C(=O)N2CCCCC2C(=O)OC(C(C)CC2CCC(OCCO)C(OC)C2)CC(=O)C(C)C=C(C)C(O)C(OC)C(=O)C(C)CC(C)C=CC=CC=C1C` (configuration not stated) + CC(C)NCC(C(=O)N1CCN(c2ncnc3c2C(C)CC3O)CC1)c1ccc(Cl)cc1, the IC50 by setting is: (curve of first compound, second compound 0.3 µM) over 100 nM; (curve of first compound, second compound 0.949 µM) over 100 nM; (curve of first compound, second compound 3 µM) 2.28 nM; (curve of first compound, second compound 9.49 µM) under 0.316 nM; (curve of first compound, second compound 30 µM) under 0.316 nM. Also, the viability, T/C by setting is: (second compound 0.3 µM, first compound 0.000316 µM) 133%; (second compound 0.3 µM, first compound 0.001 µM) 119%; (second compound 0.3 µM, first compound 0.00316 µM) 137%; (second compound 0.3 µM, first compound 0.01 µM) 129%; (second compound 0.3 µM, first compound 0.0316 µM) 130%; (second compound 0.3 µM, first compound 0.1 µM) 104%. Further, the viability, T/C (second compound 0.949 µM, first compound 0.000316 µM) was 119%; the viability, T/C (second compound 0.949 µM, first compound 0.001 µM) is 125%; the viability, T/C (second compound 0.949 µM, first compound 0.00316 µM) was 111%; the viability, T/C (second compound 0.949 µM, first compound 0.01 µM) is 97.1%; the viability, T/C (second compound 0.949 µM, first compound 0.0316 µM) was 82.5%; the viability, T/C (second compound 0.949 µM, first compound 0.1 µM) is 80.3%. The viability, T/C is 61.5% (second compound 3 µM, first compound 0.000316 µM); 59.3% (second compound 3 µM, first compound 0.001 µM); 45.6% (second compound 3 µM, first compound 0.00316 µM); 38.3% (second compound 3 µM, first compound 0.01 µM); 35.8% (second compound 3 µM, first compound 0.0316 µM); 32.1% (second compound 3 µM, first compound 0.1 µM). The viability, T/C by setting is: (second compound 9.49 µM, first compound 0.000316 µM) 23.1%; (second compound 9.49 µM, first compound 0.001 µM) 20%; (second compound 9.49 µM, first compound 0.00316 µM) 17.2%; (second compound 9.49 µM, first compound 0.01 µM) 16.2%; (second compound 9.49 µM, first compound 0.0316 µM) 15.8%; (second compound 9.49 µM, first compound 0.1 µM) 14.9%. The viability, T/C was 9.82% (second compound 30 µM, first compound 0.000316 µM); 9.86% (second compound 30 µM, first compound 0.001 µM); 10.5% (second compound 30 µM, first compound 0.00316 µM); 9.81% (second compound 30 µM, first compound 0.01 µM); 8.34% (second compound 30 µM, first compound 0.0316 µM); 7.96% (second compound 30 µM, first compound 0.1 µM).

With `Cn1cnc2c(F)c(Nc3ccc(Br)cc3Cl)c(C(=O)NOCCO)cc21`, the viability, T/C (compound 0.00949 µM) is 115% and 123%; the viability, T/C (compound 0.03 µM) was 109% and 107%; the viability, T/C (compound 0.0949 µM) was 98.8% and 134%; the viability, T/C (compound 0.3 µM) is 64.2% and 90.9%; the viability, T/C (compound 0.949 µM) was 43.6% and 36.8%; the viability, T/C (compound 3 µM) is 28.2% and 22.3%. Further, the half-inhibitory concentration (IC50) (curve of compound) was 632 nM and 695 nM.

For the compound `Cc1nc(NC(=O)N2CCCC2C(N)=O)sc1-c1ccnc(C(C)(C)C(F)(F)F)c1` (configuration not stated), the viability, T/C is 118% and 104% (compound 0.0316 µM); 107% and 117% (compound 0.1 µM); 120% and 111% (compound 0.316 µM); 105% and 108% (compound 1 µM); 106% and 111% (compound 3.16 µM); 106% and 91.4% (compound 10 µM). The IC50 (curve of compound) is over 10000 nM.

As to `CC(C)CC(NC(=O)C(Cc1ccccc1)NC(=O)c1cnccn1)B(O)O` (configuration not stated), the viability, T/C (compound 31.6 pM) is 98.1% and 102%; the viability, T/C (compound 0.0001 µM) was 115% and 110%; the viability, T/C (compound 0.000316 µM) is 101% and 108%; the viability, T/C (compound 0.001 µM) is 92.3% and 103%; the viability, T/C (compound 0.00316 µM) is 107% and 102%. Moreover, for the setting “curve of compound”, the IC50 is > 10 nM and 5.79 nM.

Consider `CC(=O)Nc1cccc(-n2c(=O)n(C3CC3)c(=O)c3c(Nc4ccc(I)cc4F)n(C)c(=O)c(C)c32)c1`, for which the viability, T/C runs as follows: (compound 94.9 pM) 97% and 104%; (compound 0.0003 µM) 110% and 106%; (compound 0.000949 µM) 134% and 90.8%; (compound 0.003 µM) 90.5% and 64%; (compound 0.00949 µM) 33.2% and 29.1%; (compound 0.03 µM) 5.55% and 17.7%. Further, the IC50 (curve of compound) is 6.78 nM and 4.71 nM.
